# Reference: PMC7116804 (Green chemistry : an international journal and green …, 2019)
# Biological target: Aa-ADH (Aromatoleum aromaticum, UniProt Q5P5I4)
# Assay: oxidation of diol […] isomer mixture, product analysis
# Assay type: biochemical
# Conditions: NAD+ 1 mM recycled by NOX; Tris-HCl pH 7.5, 30 °C, 24 h
# Chain of Aa-ADH (Q5P5I4 2-249): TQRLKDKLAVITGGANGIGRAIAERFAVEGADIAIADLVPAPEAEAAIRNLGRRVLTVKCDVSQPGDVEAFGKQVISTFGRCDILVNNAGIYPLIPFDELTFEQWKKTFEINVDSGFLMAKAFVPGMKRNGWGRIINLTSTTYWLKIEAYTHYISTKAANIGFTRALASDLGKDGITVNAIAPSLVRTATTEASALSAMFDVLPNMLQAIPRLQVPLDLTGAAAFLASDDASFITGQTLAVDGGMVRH
row,Compound,"oxidation of diol 3 isomer mixture, product analysis"
1,"C[C@@H](O)[C@H](O)c1ccccc1 [1R,2R-3]","Aa-ADH oxidized 1R,2R-3, 1S,2S-3 and 1R,2S-3"
2,"C[C@H](O)[C@@H](O)c1ccccc1 [1S,2S-3]","Aa-ADH oxidized 1R,2R-3, 1S,2S-3 and 1R,2S-3"
